# Source: patent US6545182B2, “Methods and compositions for modulating alpha adrenergic receptor activity” (Allergan Sales, Inc., priority 2000, dated 2003)
# What was measured:
# Format in all cases: cell-based
# [1] = target: T1, alpha 2B adrenergic receptor (Homo sapiens, UniProt P18089); assay: RSAT (Receptor Selection and Amplification Technology) assay, alpha 2B; details: for EC50: NIH-3T3 cells cotransfected with receptor and Gq/i5; for efficacy or intrinsic activity (value in parentheses) Alpha 2B: ratio of maximal effect to that of standard full agonist brimonidine
# T1 construct: expressed in transfected cells; host or cells: NIH-3T3 cells, transient cotransfection by calcium phosphate
# T1 sequence (P18089 1-450): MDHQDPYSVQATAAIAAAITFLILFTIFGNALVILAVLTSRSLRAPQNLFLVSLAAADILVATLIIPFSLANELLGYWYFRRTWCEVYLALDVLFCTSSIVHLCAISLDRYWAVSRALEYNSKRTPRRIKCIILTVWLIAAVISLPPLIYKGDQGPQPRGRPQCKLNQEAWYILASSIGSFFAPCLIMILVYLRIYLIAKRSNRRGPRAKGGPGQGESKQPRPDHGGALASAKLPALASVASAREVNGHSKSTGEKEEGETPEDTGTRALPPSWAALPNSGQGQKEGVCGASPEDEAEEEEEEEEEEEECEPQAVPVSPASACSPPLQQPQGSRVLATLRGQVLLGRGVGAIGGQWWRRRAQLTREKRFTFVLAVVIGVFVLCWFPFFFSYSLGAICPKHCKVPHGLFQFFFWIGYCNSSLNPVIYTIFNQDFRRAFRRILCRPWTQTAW
# Description: (§1) Activity was measured using the RSAT (Receptor Selection and Amplification Technology) assay, developed by Receptor Technologies, Inc. of Winooski, Vt. (now Acadia Pharmaceuticals of San Diego, Calif.), adapted for use with recombinant alpha2 adrenergic receptors in collaboration with Allergan. The assay measures receptor-mediated loss of contact inhibition that results in selective proliferation of receptor-containing cells in a mixed population of confluent cells. The increase in cell number is assessed with an appropriate transfected marker gene such as β-galactosidase, the activity of which can be easily measured in a 96-well format. Receptors that activate the G protein, Gq, elicit this response. Alpha2 receptors, which normally couple to Gi, activate the RSAT response when coexpressed with a hybrid Gq protein that has a Gi receptor recognition domain, called Gq/i5.
# (§2) The assay is conducted as follows. NIH-3T3 cells are plated at a density of 2×10^6 cells in 15 cm dishes and maintained in Dulbecco's modified Eagle's medium supplemented with 10% calf serum. One day later, cells are cotransfected by calcium phosphate precipitation with mammalian expression plasmids encoding p-SV-β-galactosidase (5-10 μg), receptor (1-2 μg) and G protein (1-2 μg). 40 μg salmon sperm DNA may also be included in the transfection mixture to increase transfection efficiency. Fresh media is added on the following day and 1-2 days later, cells are harvested and frozen in 50 assay aliquots. Transfectant cells are thawed and 100 μl added to 100 μl aliquots of various concentrations of drugs in triplicate in 96-well dishes. Incubations continue 72-96 hr at 37°. After washing with phosphate-buffered saline, β-galactosidase enzyme activity is determined by adding 200 μl of the chromogenic substrate (consisting of 3.5 mM o-nitrophenyl-β-D-galactopyranoside and 0.5% of the non-ionic surfactant nonidet P-40 in phosphate buffered saline), incubating overnight at 30° and measuring optical density at 420 nm. The absorbency is a measure of enzyme activity, which depends on cell number and reflects a receptor-mediated cell proliferation. The EC50 and maximal effect of each drug at each alpha2 receptor is determined. The efficacy or intrinsic activity is calculated as a ratio of the maximal effect of the drug to the maximal effect of a standard full agonist for each receptor subtype. Brimonidine, also called UK14304, is used as the standard agonist for the alpha2A, alpha2B and alpha2C receptors. The RSAT assay is also discussed in Messier et al. (1995) High throughput assays of cloned adrenergic, muscarinic, neurokinin and neurotrophin receptors in living mammalian cells, Pharmacol. Toxicol. 76:308-11; see also Conklin et al. (1993) Substitution of three amino acids switches receptor specificity of Gqα to that of Giα, Nature 363:274-6; Both of these papers are incorporated by reference herein.
# [2] = target: T2, alpha 2A adrenergic receptor (Homo sapiens, UniProt P08913); assay: RSAT (Receptor Selection and Amplification Technology) assay, alpha 2A; details: for EC50: NIH-3T3 cells cotransfected with receptor and Gq/i5; for efficacy or intrinsic activity (value in parentheses) Alpha 2A: ratio of maximal effect to that of standard full agonist brimonidine
# T2 construct: expressed in transfected cells; host or cells: NIH-3T3 cells, transient cotransfection by calcium phosphate
# T2 sequence (P08913 1-465): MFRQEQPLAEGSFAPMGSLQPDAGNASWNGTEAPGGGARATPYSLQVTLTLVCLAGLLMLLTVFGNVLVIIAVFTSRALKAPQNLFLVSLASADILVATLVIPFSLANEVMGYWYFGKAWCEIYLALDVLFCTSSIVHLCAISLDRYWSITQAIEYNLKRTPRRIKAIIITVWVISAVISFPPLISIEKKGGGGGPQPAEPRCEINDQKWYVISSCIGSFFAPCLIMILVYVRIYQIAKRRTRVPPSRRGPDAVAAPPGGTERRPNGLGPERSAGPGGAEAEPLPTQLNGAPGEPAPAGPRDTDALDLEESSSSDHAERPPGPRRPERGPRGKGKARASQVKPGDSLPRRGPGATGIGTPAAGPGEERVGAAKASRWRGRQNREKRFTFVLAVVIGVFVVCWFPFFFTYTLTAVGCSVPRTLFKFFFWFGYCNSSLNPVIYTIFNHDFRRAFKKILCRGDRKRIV
# Description: as §1, §2
# [3] = target: T3, alpha 2C adrenergic receptor (Homo sapiens, UniProt P18825); assay: RSAT (Receptor Selection and Amplification Technology) assay, alpha 2C; details: for EC50: NIH-3T3 cells cotransfected with receptor and Gq/i5; for efficacy or intrinsic activity (value in parentheses) Alpha 2C: ratio of maximal effect to that of standard full agonist brimonidine
# T3 construct: expressed in transfected cells; host or cells: NIH-3T3 cells, transient cotransfection by calcium phosphate
# T3 sequence (P18825 1-462): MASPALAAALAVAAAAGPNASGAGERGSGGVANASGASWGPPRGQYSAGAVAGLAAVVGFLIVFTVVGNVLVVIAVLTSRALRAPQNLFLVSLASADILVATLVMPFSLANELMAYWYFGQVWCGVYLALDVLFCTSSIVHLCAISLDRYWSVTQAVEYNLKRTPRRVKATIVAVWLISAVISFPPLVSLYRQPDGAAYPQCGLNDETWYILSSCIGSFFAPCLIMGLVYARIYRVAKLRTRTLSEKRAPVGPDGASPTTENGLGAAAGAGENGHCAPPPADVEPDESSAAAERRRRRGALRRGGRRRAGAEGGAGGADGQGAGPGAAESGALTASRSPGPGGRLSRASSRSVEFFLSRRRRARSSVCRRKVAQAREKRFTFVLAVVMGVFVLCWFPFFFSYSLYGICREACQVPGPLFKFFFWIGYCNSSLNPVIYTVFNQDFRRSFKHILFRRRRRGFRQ
# Description: as §1, §2
SMILES,EC50 [1] [nM],efficacy or intrinsic activity (value in parentheses) Alpha 2B [1],EC50 [2] [nM],EC50 [3] [nM],efficacy or intrinsic activity (value in parentheses) Alpha 2C [3],efficacy or intrinsic activity (value in parentheses) Alpha 2A [2]
OCCNC(=S)NCc1cccc(Cl)c1F [drawing 20],16,0.82,≥ 210000,457,0.37,
OCCNC(=S)NCc1ccc(F)c(Br)c1F,138,1.01,≥ 210000,786,0.66,
Cc1cc(Br)cc(CNC(=S)NCCO)c1F,240,0.8,≥ 210000,1490,0.37,
OCCNC(=S)NCc1cc(C(F)(F)F)ccc1F,523,0.8,≥ 210000,853,0.7,
OCCNC(=S)NCc1cc(I)ccc1F,49,0.76,≥ 210000,322,0.68,
COc1ccc(F)cc1CNC(=S)NCCO,9,0.96,930,45,0.78,0.39
Cc1ccccc1CNC(=S)NCCO,174,0.7,≥ 210000,≥ 210000,,
OCCNC(=S)NCc1cc(F)ccc1O,27,1.20,≥ 210000,144,0.74,
OCCNC(=S)NCc1c(F)cc(F)c(Cl)c1F,281,0.58,≥ 210000,≥ 210000,,
OCCNC(=S)NCc1c(F)c(F)cc(F)c1F,243,0.9,≥ 210000,2370,0.51,
Cc1ccc(Br)c(CNC(=S)NCCO)c1F,115,0.8,≥ 210000,> 3000,,
OCCNC(=S)NCc1cccc(I)c1,30,1.16,63,232,0.58,0.42
OCCNC(=S)NCc1c(F)ccc(F)c1Cl,44,0.94,≥ 210000,1850,0.54,
Cc1ccc(CNC(=S)NCCO)cc1,59,0.6,≥ 210000,1810,0.4,
OCCNC(=S)NCc1ccc(F)cc1C(F)(F)F,478,0.72,≥ 210000,> 2000,,
OCCNC(=S)NCc1cccc(OC(F)(F)F)c1,2390,0.55,≥ 210000,≥ 210000,,
OCCNC(=S)NCc1cc(Br)ccc1F,36,0.97,≥ 210000,459,0.58,
CCOc1ccccc1CNC(=S)NCCO,42,0.7,≥ 210000,28,0.4,
OCCNC(=S)NCc1cc(Br)cc(Br)c1F,116,1.23,≥ 210000,1410,0.58,
OCCNC(=S)NCc1cc(Br)c(F)c(F)c1F,512,1.07,≥ 210000,≥ 210000,,
OCCNC(=S)NCc1c(Cl)ccc(Cl)c1F,89,0.92,≥ 210000,1420,0.78,
OCCNC(=S)NCc1cc(Br)cc(Cl)c1F,117,1.13,≥ 210000,> 2000,,
